Test [1] deals with T1, Rubisco (Chlamydomonas reinhardtii, UniProt P00873).
T1 construct: Rubisco was purified from Chlamydomonas reinhardtii strain cMJ030; endogenous in cells; host or cells: Chlamydomonas reinhardtii strain cMJ030 (wild type); holoenzyme purified from lysate by sucrose gradient and anion exchange
In words: Surface plasmon resonance (SPR) assay of peptides binding to immobilized Rubisco. On the procedure: Surface Plasmon Resonance (SPR) Assay Rubisco was immobilized on a surface and peptides in solution were flowed over the surface. Surface plasmon measurements of binding of individual peptides to Rubisco were assayed (FIG. 3B).
Rubisco was purified from Chlamydomonas reinhardtii strain cMJ030. Cells were disrupted by ultrasonication in lysis buffer (10 mM MgCl2, 50 mM Bicine, 10 mM NaHCO3, 1 mM dithiothreitol (DTT) pH 8.0) supplemented with Halt Protease Inhibitor Cocktail, EDTA-Free (Fisher Scientific). The soluble lysate was fractionated by ultracentrifuge in a 10%-30% sucrose gradient in a SW 41 Ti rotor at 35,000 rpm for 20 hours at 4° C. Rubisco-containing fractions were applied to an anion exchange column (MONO Q 5/50 GL, GE Healthcare) and fractionated by using a linear salt gradient from 0 to 0.5 M NaCl (10 mM MgCl2, 50 mM Bicine, 10 mM NaHCO3, 1 mM dithiothreitol pH 8.0).
Mutagenesis of EPYC1, Mutagenesis of Rubisco, Yeast Two-hybrid, Peptide Arrays and SPR Assays To determine the importance of individual EPYC1 residues for binding to Rubisco, the impact on Rubisco binding of every possible single amino acid substitution for EPYC1 RBM 2 was determined (FIG. 8). […]
SPR Assays: The Rubisco-binding capacity for the C-terminal motif variant (W[+]xxΨ ) was determined using SPR by probing purified Rubisco with fifteen amino acid-long synthetic peptides. […]
(Surface plasmon resonance follows binding to a sensor surface in real time, without labels.)

Test [2] has as its system C. reinhardtii cells. Description: Confocal fluorescence microscopy localization of Venus fusion proteins. The class given is cell-based, Chlamydomonas reinhardtii. Conditions: Venus fluorescence in C. reinhardtii cells. The text has this: A synthetic […] (Invitrogen) containing a 643 bp restriction fragment containing the C-terminus of Venus, followed by the sequence coding for the FLAG-tag sequence, and a sequence coding for three repetitions of the 15 C-terminal amino acids of SAGA2, was cloned into pLM005-FDX1, after restriction digestion with EcoRl and PfIMI. GenBank accession number of the empty pLM005 is KX077945.1. The plasmid pLM005-FDX1 is identical to pLM005 with the genomic sequence of FDX1 cloned in frame by Gibson Assembly (Mackinder et al., PNAS 113: 5958-5963, 2015) between residues 2698 and 3234. The terminal 85 amino acids of resultant mature fusion protein, immediately downstream of the FLAG-tag, were a 5 aa linker (GGGGS; SEQ ID NO: 87), a first copy of SAGA2 15 C-terminal aa, followed by a 10 aa linker (2X GGGGS; SEQ ID NO: 88), a second copy of SAGA2 15 last aa, another 10 aa linker (2X GGGGS; SEQ ID NO: 88), and finally a third copy of SAGA2 15 last aa. The sequence of the EcoRI-PfIMI digestion fragment (SEQ ID NO: 89) was cloned in frame into pLM005-FDX1.
Culturing and Transformation of C. reinhardtii: Culturing and transformation of C. reinhardtii for fluorescence localization of protein and imaging was performed as described in Mackinder et al. (PNAS 113: 5958-5963, 2015). […]

Residues, ends and D or L forms follow the SMILES beside them.

T1 sequence (P00873 46-185, other chains not shown): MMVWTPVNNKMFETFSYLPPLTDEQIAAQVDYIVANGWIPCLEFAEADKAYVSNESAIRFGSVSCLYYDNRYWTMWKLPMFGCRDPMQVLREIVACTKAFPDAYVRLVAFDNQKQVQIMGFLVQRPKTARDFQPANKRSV

The Kd is the constant that tells how readily two partners part at equilibrium. Lower therefore signals higher affinity. For the molecule `CC(C)C[C@H](NC(=O)[C@H](CO)NC(=O)[C@H](CCC(=O)O)NC(=O)[C@H](CC(C)C)NC(=O)[C@H](CCC(=O)O)NC(=O)[C@H](CCC(N)=O)NC(=O)[C@H](CCCNC(=N)N)NC(=O)[C@H](Cc1c[nH]c2ccccc12)NC(=O)[C@H](CC(N)=O)NC(=O)[C@H](C)NC(=O)[C@@H]1CCCN1C(=O)[C@H](CC(C)C)NC(=O)[C@@H](NC(=O)[C@H](CO)NC(=O)[C@H](CCCNC(=N)N)NC(=O)[C@@H](NC(=O)[C@@H]1CCCN1C(=O)[C@H](CO)NC(=O)[C@@H](NC(=O)[C@H](CCCNC(=N)N)NC(=O)[C@H](CC(N)=O)NC(=O)[C@@H](N)[C@@H](C)O)C(C)C)[C@@H](C)O)C(C)C)C(=O)N[C@@H](CCCNC(=N)N)C(=O)N[C@@H](CC(N)=O)C(=O)O` [EPYC1 fragment] (H-TNRVSPTRSVLPANWRQELESLRN-OH), the dissociation constant (Kd) in test [1] (KD, 24 amino acid EPYC1 fragment spanning RBM 2 binding to Rubisco, FIG. 4C) amounted to 3.09 mM; in test [1] (Kd, individual EPYC1 RBM peptides binding to Rubisco) it was 3 mM.

As to “RBMP2-Venus: Rubisco-Binding Membrane Protein 2 (SEQ ID NO: 2) fused to the Venus fluorescent protein”, the “localization pattern within the pyrenoid” value in test [2] (FIG. 15) is reported as “confined to the very heart of the pyrenoid”. In addition, the localization entry in test [2] (FIGS. 14B and 15) is “localized to the pyrenoid”.
